According to DBAASP:
Converted amounts (≈) assume the structure as drawn.

Assays:
Test in all cases: ≥ marks a high value that may be exact or a test limit, other limits are often not marked, values filed in µg/mL are converted to µM
Pseudomonas aeruginosa = tested on: Pseudomonas aeruginosa
[1] = tested on: Candida albicans ATCC 90028
[2] = tested on: Escherichia coli ATCC 25922
[3] = tested on: Pseudomonas aeruginosa ATCC 27853
[4] = tested on: Staphylococcus aureus ATCC 29213
Acinetobacter baumannii = tested on: Acinetobacter baumannii
[5] = tested on: Klebsiella pneumoniae ATCC 700603
[6] = tested on: Pseudomonas aeruginosa ATCC 9027
[7] = tested on: Staphylococcus aureus ATCC 25923
Candida albicans = tested on: Candida albicans
Escherichia coli = tested on: Escherichia coli
Staphylococcus aureus = tested on: Staphylococcus aureus
Escherichia coli UB1005 = tested on: Escherichia coli UB1005
[8] = tested on: Pseudomonas aeruginosa PAO1
[9] = tested on: Acinetobacter baumannii ATCC 19606

SMILES	MIC (Pseudomonas aeruginosa) [µM]	MIC [2] [µM]	MIC [7] [µM]	MIC (Escherichia coli) [µM]	MIC (Staphylococcus aureus) [µM]	other results
CC[C@H](C)[C@H](NC(=O)[C@H](Cc1ccccc1)NC(=O)[C@H](CO)NC(=O)[C@H](CCCCN)NC(=O)[C@H](Cc1c[nH]c2ccccc12)NC(=O)[C@@H](N)CCCCN)C(=O)N[C@@H](CCCCN)C(=O)N[C@@H](CCCCN)C(=O)N[C@@H](CC(C)C)C(=O)N[C@H](C(=O)N[C@@H](CO)C(=O)N[C@@H](CCCCN)C(=O)N[C@@H](CCCCN)C(=O)N[C@@H](CC(C)C)C(=O)N[C@@H](Cc1cnc[nH]1)C(=O)N[C@@H](CO)C(=O)N[C@@H](C)C(=O)N[C@@H](CCCCN)C(=O)N[C@@H](CCCCN)C(=O)N[C@@H](Cc1ccccc1)C(N)=O)[C@@H](C)O [KWKSFIKKLTSKKLHSAKKF]	> 20.5					
CC[C@H](C)[C@H](NC(=O)[C@H](CCCCN)NC(=O)[C@H](CC(=O)O)NC(=O)[C@H](Cc1ccccc1)NC(=O)[C@H](CC(C)C)NC(=O)[C@@H](N)CCCN=C(N)N)C(=O)N[C@@H](CCCN=C(N)N)C(=O)N[C@@H](CCC(N)=O)C(=O)N[C@H](C(=O)N[C@H](C(=O)N[C@@H](CCCN=C(N)N)C(=O)N[C@@H](CCCCN)C(=O)O)[C@@H](C)CC)C(C)C [RLFDKIRQVIRK]		5 (≈ 7.86 µg/mL)				MIC [1]: 5 µM (≈ 7.86 µg/mL); MIC [3]: 10 µM (≈ 15.7 µg/mL); MIC [4]: 10 µM (≈ 15.7 µg/mL)
CC[C@H](C)[C@H](NC(=O)[C@H](Cc1c[nH]c2ccccc12)NC(=O)[C@H](CCCCN)NC(=O)[C@@H](NC(=O)[C@H](CC(C)C)NC(=O)[C@H](CO)NC(=O)[C@H](CCCCN)NC(=O)CN)C(C)C)C(=O)N[C@H](C(=O)N[C@@H](CCCCN)C(=O)N[C@@H](CO)C(=O)N[C@H](C(=O)N[C@@H](CCCN=C(N)N)C(=O)N[C@@H](CCCCN)C(=O)N[C@@H](C)C(N)=O)C(C)C)C(C)C [GKSLVKWIVKSVRKA]		> 25	> 25			MIC (Acinetobacter baumannii): 25 µM (≈ 42.5 µg/mL); MIC [5]: > 25 µM; MIC [6]: > 25 µM
CC[C@H](C)[C@H](NC(=O)[C@H](CC(C)C)NC(=O)[C@H](Cc1cnc[nH]1)NC(=O)[C@@H](NC(=O)[C@@H](NC(=O)[C@@H](NC(=O)CNC(=O)[C@H](CC(C)C)NC(=O)[C@H](C)NC(=O)[C@H](C)NC(=O)[C@H](CCCCN)NC(=O)CNC(=O)[C@@H](NC(=O)[C@H](Cc1cnc[nH]1)NC(=O)[C@H](CCCCN)NC(=O)[C@@H](NC(=O)[C@@H](NC(=O)[C@H](CC(=O)O)NC(=O)[C@H](CC(C)C)NC(=O)[C@H](Cc1ccccc1)NC(=O)CN)C(C)C)[C@@H](C)CC)C(C)C)C(C)C)C(C)C)[C@@H](C)O)C(=O)N[C@@H](CC(N)=O)C(=O)N[C@@H](CCC(N)=O)C(N)=O [GFLDVIKHVGKAALGVVTHLINQ]				26.3 (≈ 64 µg/mL)	6.58 (≈ 16 µg/mL)	MIC (Candida albicans): 13.2 µM (≈ 32 µg/mL)
CC(C)C[C@H](NC(=O)CNC(=O)[C@@H]1CCCN1C(=O)[C@H](CCCCN)NC(=O)[C@H](CCCCN)NC(=O)[C@@H]1CCCN1C(=O)[C@H](CCCN=C(N)N)NC(=O)[C@H](CC(=O)O)NC(=O)[C@@H](N)CCCCN)C(=O)N[C@@H](CS)C(=O)N1CCC[C@H]1C(=O)N[C@@H](C)C(=O)N[C@@H](C)C(=O)N[C@@H](CCCCN)C(=O)N[C@@H](CCCCN)C(=O)N[C@@H](C)C(=O)N[C@@H](C)C(=O)N[C@@H](C)C(=O)N[C@@H](C)C(=O)N[C@@H](CCCCN)C(=O)N[C@@H](C)C(N)=O [KDRPKKPGLCPAAKKAAAAKA]	58.9 (≈ 125 µg/mL)	14.7 (≈ 31.2 µg/mL)	118 (≈ 250 µg/mL)	> 236	118 (≈ 250 µg/mL)	MIC (Candida albicans): 236 µM (≈ 500 µg/mL); MIC [3]: 29.5 µM (≈ 62.5 µg/mL)
CC(C)C[C@H](NC(=O)[C@H](Cc1ccc(O)cc1)NC(=O)[C@@H]1CCCN1C(=O)[C@@H]1CCCN1C(=O)[C@H](CCCCN)NC(=O)[C@@H]1CCCN1C(=O)[C@@H](N)C(C)C)C(=O)N1CCC[C@H]1C(=O)N[C@@H](CCCN=C(N)N)C(=O)N1CCC[C@H]1C(=O)N[C@@H](CCCN=C(N)N)C(=O)N1CCC[C@H]1C(=O)N1CCC[C@H]1C(=O)N[C@@H](CCCN=C(N)N)C(=O)N[C@@H](CCCN=C(N)N)C(=O)N[C@@H](Cc1ccccc1)C(=O)N[C@@H](Cc1ccc(O)cc1)C(=O)N[C@@H](CC(N)=O)C(=O)N[C@@H](Cc1cnc[nH]1)C(N)=O [VPKPPYLPRPRPPRRFYNH]			3.35 (≈ 8 µg/mL)			MIC (Escherichia coli UB1005): 16.8 µM (≈ 40 µg/mL); MIC [8]: 107 µM (≈ 256 µg/mL)
CC[C@H](C)[C@H](NC(=O)[C@H](CCCCN)NC(=O)[C@H](CS)NC(=O)[C@H](C)NC(=O)[C@@H](NC(=O)[C@H](Cc1ccccc1)NC(=O)CNC(=O)[C@H](CC(C)C)NC(=O)CNC(=O)[C@@H](NC(=O)[C@H](CCCCN)NC(=O)[C@H](CCCCN)NC(=O)[C@H](CC(C)C)NC(=O)[C@H](CC(N)=O)NC(=O)[C@H](CCCCN)NC(=O)[C@H](CC(C)C)NC(=O)[C@@H](NC(=O)[C@H](CO)NC(=O)[C@H](CC(C)C)NC(=O)[C@H](CCSC)NC(=O)[C@@H](N)CO)C(C)C)C(C)C)C(C)C)C(=O)N[C@@H](CC(N)=O)C(=O)N[C@@H](CCCCN)C(=O)N[C@@H](CCC(N)=O)C(=O)N[C@@H](CS)C(=O)O [SMLSVLKNLKKVGLGFVACKINKQC]				200 (≈ 544 µg/mL)	> 200	MIC (Candida albicans): > 200 µM
CC[C@H](C)[C@H](NC(=O)[C@H](CCCN=C(N)N)NC(=O)[C@H](CCC(N)=O)NC(=O)[C@@H](NC(=O)[C@@H](NC(=O)[C@H](CCCN=C(N)N)NC(=O)[C@@H](N)CCCCN)[C@@H](C)CC)C(C)C)C(=O)N[C@@H](CCCCN)C(=O)N[C@@H](CC(=O)O)C(=O)N[C@@H](C)C(=O)N[C@@H](CC(C)C)C(=O)N[C@@H](CCCN=C(N)N)C(=O)O [KRIVQRIKDALR]		10 (≈ 15 µg/mL)				MIC [1]: 20 µM (≈ 29.9 µg/mL); MIC [3]: 20 µM (≈ 29.9 µg/mL); MIC [4]: 40 µM (≈ 59.8 µg/mL)
CC[C@H](C)[C@H](NC(=O)[C@H](CCCN=C(N)N)NC(=O)[C@@H](NC(=O)[C@@H](NC(=O)[C@@H]1CCCN1C(=O)[C@@H](NC(=O)[C@@H](NC(=O)[C@@H](NC(=O)[C@@H]1CCCN1C(=O)CNC(=O)CNC(=O)[C@H](CCCCN)NC(=O)[C@H](CCCCN)NC(=O)[C@H](Cc1c[nH]c2ccccc12)NC(=O)[C@H](C)NC(=O)[C@H](CCCN=C(N)N)NC(=O)[C@H](CC(C)C)NC(=O)[C@@H](NC(=O)[C@H](CCCCN)NC(=O)[C@H](CCCN=C(N)N)NC(=O)CNC(=O)[C@H](CC(C)C)NC(=O)[C@H](CCCCN)NC(=O)[C@H](CCCN=C(N)N)NC(=O)[C@H](CC(C)C)NC(=O)CNC(=O)[C@@H](N)CCCCN)[C@@H](C)CC)[C@@H](C)CC)[C@@H](C)CC)C(C)C)[C@@H](C)CC)[C@@H](C)CC)C(=O)O [KGLRKLGRKILRAWKKGGPIIVPIIRI]						MIC [9]: 2.3 µM (≈ 7.07 µg/mL); MIC (Acinetobacter baumannii): 3.25 µM (≈ 10 µg/mL)
CC(C)C[C@H](NC(=O)[C@H](Cc1ccc(O)cc1)NC(=O)[C@@H]1CCCN1C(=O)[C@@H]1CCCN1C(=O)[C@H](CCCCN)NC(=O)[C@H](CC(=O)O)NC(=O)[C@@H](N)C(C)C)C(=O)N1CCC[C@H]1C(=O)N[C@@H](CCCN=C(N)N)C(=O)N1CCC[C@H]1C(=O)N[C@@H](CCCN=C(N)N)C(=O)N1CCC[C@H]1C(=O)N1CCC[C@H]1C(=O)N[C@@H](CCCN=C(N)N)C(=O)N[C@@H](CCCN=C(N)N)C(=O)N[C@@H](Cc1ccccc1)C(=O)N[C@@H](Cc1ccc(O)cc1)C(=O)N[C@@H](CC(N)=O)C(=O)N[C@@H](CCCN=C(N)N)C(N)=O [VDKPPYLPRPRPPRRFYNR]			6.6 (≈ 16 µg/mL)			MIC (Escherichia coli UB1005): 0.364 µM (≈ 0.883 µg/mL); MIC [8]: 106 µM (≈ 256 µg/mL)
CC(C)C[C@H](NC(=O)CNC(=O)[C@H](C)NC(=O)[C@H](CC(C)C)NC(=O)[C@H](CCCCN)NC(=O)[C@H](C)NC(=O)[C@H](CCCCN)NC(=O)[C@H](CC(C)C)NC(=O)CNC(=O)[C@H](C)NC(=O)[C@H](Cc1c[nH]c2ccccc12)NC(=O)[C@H](CCCCN)NC(=O)[C@H](C)NC(=O)[C@H](CCCCN)NC(=O)[C@H](CC(C)C)NC(=O)CNC(=O)[C@H](C)NC(=O)[C@H](CC(C)C)NC(=O)[C@@H](N)CCCCN)C(=O)N[C@@H](CCCCN)C(=O)N[C@@H](C)C(N)=O [KLAGLKAKWAGLKAKLAGLKA]	> 120			> 120	> 120	
CC(C)C[C@H](NC(=O)CNC(=O)[C@H](C)NC(=O)[C@H](CC(C)C)NC(=O)[C@H](CCCCN)NC(=O)[C@H](CCCCN)NC(=O)[C@H](C)NC(=O)[C@H](CC(C)C)NC(=O)CNC(=O)[C@H](C)NC(=O)[C@H](Cc1c[nH]c2ccccc12)NC(=O)[C@H](CCCCN)NC(=O)[C@H](CCCCN)NC(=O)[C@H](C)NC(=O)[C@H](CC(C)C)NC(=O)CNC(=O)[C@H](C)NC(=O)[C@H](CC(C)C)NC(=O)[C@@H](N)CCCCN)C(=O)N[C@@H](C)C(=O)N[C@@H](CCCCN)C(N)=O [KLAGLAKKWAGLAKKLAGLAK]	7.49 (≈ 16 µg/mL)			3.74 (≈ 8 µg/mL)	7.49 (≈ 16 µg/mL)	
CSCC[C@H](NC(=O)[C@@H](NC(=O)[C@H](CCCN=C(N)N)NC(=O)[C@H](Cc1ccccc1)NC(=O)[C@H](C)NC(=O)[C@H](C)NC(=O)[C@H](CCCCN)NC(=O)[C@H](CCCN=C(N)N)NC(=O)[C@H](Cc1c[nH]c2ccccc12)NC(=O)[C@H](C)NC(=O)[C@@H]1CCCN1C(=O)[C@@H](N)CCCN=C(N)N)C(C)C)C(=O)N[C@@H](CCCN=C(N)N)C(=O)N[C@@H](C)C(=O)N[C@@H](CS)C(=O)N[C@H](C(N)=O)C(C)C [RPAWRKAAFRVMRACV]	2.09 (≈ 4 µg/mL)					
